# Assay results as given in ChEMBL document CHEMBL5214970, “Discovery and optimization of orally bioavailable and potent plasma Kallikrein inhibitors bearing a quaternary carbon” (Bioorg Med Chem, 2022).
# What was measured:
# Plasma kallikrein [1] = biological target: T1, Plasma kallikrein (Homo sapiens, UniProt P03952); test: Inhibition of purified human plasma kallikrein using H-D-Pro-Phe-Arg-pNA.2HCl as substrate measured after 3 mins by microplate reader analysis
# Plasma kallikrein [2] = biological target: T1, Plasma kallikrein; test: Inhibition of endogenous human plasma kallikrein using Z-Phe-Arg-AMC.HCl as substrate measured after 5 mins by microplate reader analysis
# [3] = Cmax in Sprague-Dawley rat at 10 mg/kg,po; assay type: ADME, organism-based; design: dose 10 mg/kg, route po; conditions: in vivo
# [4] = Cmin in Sprague-Dawley rat at 10 mg/kg,po measured after 24 hrs; assay type: ADME, organism-based; conditions: in vivo; for concentration at 24 h: Sprague-Dawley, read-out: Cmin
# [5] = AUC (0 to 24hrs) in Sprague-Dawley rat at 10 mg/kg,po; assay type: ADME, organism-based; design: time < 24 hr, dose 10 mg/kg, route po; conditions: in vivo; for AUC(0-t) at 24 h: Sprague-Dawley
# T1 sequence (P03952 20-390 limits assumed): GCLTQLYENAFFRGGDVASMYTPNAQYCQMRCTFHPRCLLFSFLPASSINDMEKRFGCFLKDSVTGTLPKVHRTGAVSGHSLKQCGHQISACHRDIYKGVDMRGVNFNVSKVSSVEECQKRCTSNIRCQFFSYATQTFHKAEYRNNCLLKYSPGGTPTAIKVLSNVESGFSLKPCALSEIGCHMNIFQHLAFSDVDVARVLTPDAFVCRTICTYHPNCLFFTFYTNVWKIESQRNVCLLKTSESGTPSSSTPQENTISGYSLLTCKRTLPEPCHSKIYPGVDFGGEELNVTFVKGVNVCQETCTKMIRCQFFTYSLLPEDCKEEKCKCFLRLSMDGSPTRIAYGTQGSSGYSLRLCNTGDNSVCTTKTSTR
# T1 sequence (P03952 391-638 limits assumed): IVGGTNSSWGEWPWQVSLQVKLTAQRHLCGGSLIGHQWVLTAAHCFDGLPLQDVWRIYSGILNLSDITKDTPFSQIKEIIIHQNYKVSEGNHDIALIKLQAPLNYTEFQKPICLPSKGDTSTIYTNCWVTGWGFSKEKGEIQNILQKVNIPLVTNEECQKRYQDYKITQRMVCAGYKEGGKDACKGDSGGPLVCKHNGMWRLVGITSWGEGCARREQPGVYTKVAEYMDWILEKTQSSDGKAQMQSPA
IC50 (Plasma kallikrein [1]),IC50 (Plasma kallikrein [2]),"Cmax ([3]; Sprague-Dawley, read-out: Cmax)",concentration at 24 h [4],AUC(0-t) at 24 h [5],Cmax [3],"Cmin ([4]; po, 10 mg/kg, 24 h)",AUC ([5]; 24 h),Structure (SMILES)
18.5 nM,104 nM,–,–,–,–,–,–,NCc1cccc(-n2nc(C(F)(F)F)cc2C(=O)Nc2cccc(C(O)(CCC3CC3)c3ccccn3)c2)c1 (stereo unspecified)
1.3 nM,6 nM,17 ng/mL,9.4 ng/mL,306 ng·h/mL,–,–,–,NCc1cccc(-n2nc(C(F)(F)F)cc2C(=O)Nc2cc(C(N)(CCC3CC3)c3cccc(C(N)=O)c3)ccc2F)c1 (stereo unspecified)
0.9 nM,3.8 nM,–,–,–,–,–,–,NCc1cccc(-n2nc(C(F)(F)F)cc2C(=O)Nc2cc(C(N)(CCC3CC3)c3ccc(C(N)=O)cc3)ccc2F)c1 (stereo unspecified)
2.9 nM,12 nM,676 ng/mL,53.3 ng/mL,2890 ng·h/mL,–,–,–,N#Cc1cccc(C(N)(CCC2CC2)c2ccc(F)c(NC(=O)c3cc(C(F)(F)F)nn3-c3cccc(CN)c3)c2)n1 (stereo unspecified)
5.4 nM,19.3 nM,–,–,–,–,–,–,NCc1cccc(-n2nc(C(F)(F)F)cc2C(=O)Nc2cccc(C(NCC3CC3)c3ccccc3)c2)c1 (stereo unspecified)
10.4 nM,2030 nM,–,–,–,–,–,–,NCc1cccc(-n2nc(C(F)(F)F)cc2C(=O)Nc2cccc(C(CCC3CC3)c3ccccc3)c2)c1 (stereo unspecified)
2.3 nM,1.7 nM,27 ng/mL,–,134 ng·h/mL,–,–,–,"NCc1cccc(-n2nc(C(F)(F)F)cc2C(=O)Nc2cc(C(N)(CCC3CC3)c3ccc(C(N)=O)nc3)ccc2F)c1 (single isomer, unassigned; (+))"
14 nM,191 nM,–,–,–,–,–,–,NCc1cccc(-n2nc(C(F)(F)F)cc2C(=O)Nc2cccc(C(O)(CCC3CC3)c3ccccc3)c2)c1 (stereo in doubt; 6)
5.7 nM,23 nM,–,–,–,–,–,–,NCc1cccc(-n2nc(C(F)(F)F)cc2C(=O)Nc2cccc(C(O)(CCC3CC3)c3cccnc3)c2)c1 (stereo in doubt; 8)
4.7 nM,17 nM,–,–,–,–,–,–,NCc1cccc(-n2nc(C(F)(F)F)cc2C(=O)Nc2cccc(C(O)(CCC3CC3)c3ccncc3)c2)c1 (stereo in doubt; 9)
1.2 nM,56 nM,–,–,–,–,–,–,NCc1cccc(-n2nc(C(F)(F)F)cc2C(=O)Nc2cccc(C(O)(CCC3CC3)c3ccccc3)c2)c1 (stereo in doubt; 10)
62 nM,1190 nM,–,–,–,–,–,–,NCc1cccc(-n2nc(C(F)(F)F)cc2C(=O)Nc2cccc(C(O)(CCC3CC3)c3ccccc3)c2)c1 (stereo in doubt; 11)
1.9 nM,9 nM,51 ng/mL,–,128 ng·h/mL,–,–,–,NCc1cccc(-n2nc(C(F)(F)F)cc2C(=O)Nc2cccc(C(O)(CCC3CC3)c3cccnc3)c2)c1 (stereo in doubt; 18)
59 nM,264 nM,–,–,–,–,–,–,NCc1cccc(-n2nc(C(F)(F)F)cc2C(=O)Nc2cccc(C(O)(CCC3CC3)c3cccnc3)c2)c1 (stereo in doubt; 19)
–,–,383 ng/mL,13 ng/mL,1440 ng·h/mL,–,–,–,NCc1cccc(-n2nc(C(F)(F)F)cc2C(=O)Nc2cc(C(O)(CCC3CC3)c3cccnc3)ccc2F)c1 (stereo in doubt; 20)
–,–,–,–,–,224 ng/mL,9 ng/mL,887 ng·h/mL,NCc1cccc(-n2nc(C(F)(F)F)cc2C(=O)Nc2cc(C(O)(CCC3CC3)c3cccnc3)ccc2F)c1 (stereo in doubt; 21)
1.3 nM,7.6 nM,7 ng/mL,–,11 ng·h/mL,–,–,–,NCc1cccc(-n2nc(C(F)(F)F)cc2C(=O)Nc2cccc(C(O)(CCC3CC3)c3ccncc3)c2)c1 (stereo in doubt; 23)
59 nM,178 nM,–,–,–,–,–,–,NCc1cccc(-n2nc(C(F)(F)F)cc2C(=O)Nc2cccc(C(O)(CCC3CC3)c3ccncc3)c2)c1 (stereo in doubt; 24)
1.1 nM,7.7 nM,42 ng/mL,2 ng/mL,95 ng·h/mL,–,–,–,NCc1cccc(-n2nc(C(F)(F)F)cc2C(=O)Nc2cc(C(O)(CCC3CC3)c3ccncc3)ccc2F)c1 (stereo in doubt; 25)
180 nM,165 nM,–,–,–,–,–,–,NCc1cccc(-n2nc(C(F)(F)F)cc2C(=O)Nc2cc(C(O)(CCC3CC3)c3ccncc3)ccc2F)c1 (stereo in doubt; 26)
–,–,157 ng/mL,15.1 ng/mL,960 ng·h/mL,–,–,–,NCc1cccc(-n2nc(C(F)(F)F)cc2C(=O)Nc2cc(C(N)(CCC3CC3)c3ccccn3)ccc2F)c1 (stereo in doubt; 29)
–,–,190 ng/mL,9.62 ng/mL,888 ng·h/mL,–,–,–,NCc1cccc(-n2nc(C(F)(F)F)cc2C(=O)Nc2cc(C(N)(CCC3CC3)c3cccnc3)ccc2F)c1 (stereo in doubt; 31)
1.5 nM,3 nM,93 ng/mL,22.9 ng/mL,825 ng·h/mL,–,–,–,NCc1cccc(-n2nc(C(F)(F)F)cc2C(=O)Nc2cc(C(N)(CCC3CC3)c3ccncc3)ccc2F)c1 (stereo in doubt; 33)
118 nM,76 nM,–,–,–,–,–,–,NCc1cccc(-n2nc(C(F)(F)F)cc2C(=O)Nc2cc(C(N)(CCC3CC3)c3ccncc3)ccc2F)c1 (stereo in doubt; 34)
1.2 nM,3 nM,390 ng/mL,24.5 ng/mL,1560 ng·h/mL,–,–,–,Cc1cc(C(N)(CCC2CC2)c2ccc(F)c(NC(=O)c3cc(C(F)(F)F)nn3-c3cccc(CN)c3)c2)ccn1 (stereo in doubt; 35)
18.4 nM,–,–,–,–,–,–,–,Cc1cc(C(N)(CCC2CC2)c2ccc(F)c(NC(=O)c3cc(C(F)(F)F)nn3-c3cccc(CN)c3)c2)ccn1 (stereo in doubt; 36)
1.3 nM,3.2 nM,429 ng/mL,56.5 ng/mL,3330 ng·h/mL,–,–,–,N#Cc1cccc(C(N)(CCC2CC2)c2ccc(F)c(NC(=O)c3cc(C(F)(F)F)nn3-c3cccc(CN)c3)c2)c1 (stereo in doubt; 37)
234 nM,382 nM,–,–,–,–,–,–,N#Cc1cccc(C(N)(CCC2CC2)c2ccc(F)c(NC(=O)c3cc(C(F)(F)F)nn3-c3cccc(CN)c3)c2)c1 (stereo in doubt; 38)
–,–,303 ng/mL,40.1 ng/mL,2290 ng·h/mL,–,–,–,N#Cc1ccc(C(N)(CCC2CC2)c2ccc(F)c(NC(=O)c3cc(C(F)(F)F)nn3-c3cccc(CN)c3)c2)cc1 (stereo in doubt; 41)
